Among the data in patent publication US20240398828A1, “HETERO-ATOM CONTAINING COMPOUNDS AND USES THEREOF” (Kumquat Biosciences Inc., priority 2021, published 2024) are IC50 values, retold here.

One assay concerns the target T1, PTPN2 (i.e., TC-PTP) (Homo sapiens, UniProt P17706).
T1 sequence (P17706 1-415): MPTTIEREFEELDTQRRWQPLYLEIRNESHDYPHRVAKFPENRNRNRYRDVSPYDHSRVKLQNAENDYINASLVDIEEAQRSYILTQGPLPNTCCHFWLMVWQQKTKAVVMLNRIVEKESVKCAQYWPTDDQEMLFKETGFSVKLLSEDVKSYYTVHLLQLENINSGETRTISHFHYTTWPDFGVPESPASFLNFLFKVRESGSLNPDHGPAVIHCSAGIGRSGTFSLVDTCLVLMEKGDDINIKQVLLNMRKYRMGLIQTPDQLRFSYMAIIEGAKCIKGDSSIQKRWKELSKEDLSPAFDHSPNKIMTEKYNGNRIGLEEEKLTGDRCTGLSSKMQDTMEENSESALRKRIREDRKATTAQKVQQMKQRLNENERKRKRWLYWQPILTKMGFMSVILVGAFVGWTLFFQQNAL
As to the kind of experiment: Phosphatase activity assay (DiFMUP substrate), PTPN2. It is filed as biochemical. Particulars: compounds binned ≤1 uM or >1 uM. The protocol: (§1) The selectivity and potency of a small molecule PTPN2 inhibitor as provided herein against one or more protein tyrosine phosphatase (PTP) enzymes, and specifically against PTPN2, is assessed in various ways. The one or more PTP enzymes comprise Mycobacterium protein tyrosine phosphatase A (mPTPA), Mycobacterium protein tyrosine phosphatase B (mPTPB), PTPN1 (i.e., PTP1B), PTPN2 (i.e., TC-PTP), PTPN22 (i.e., LYP), SHP-1, SHP-2, FAP-1, Meg2, HePTP, Laforin, VHX, VHR, LMWPTP, Cdc14A, LAR, CD45, PTPRG, a fragment thereof, a variant thereof, and a combination thereof. Selectivity and potency of a small molecule PTPN2 inhibitor is evaluated using a PTP activity inhibition assay. The assay is performed using a buffer comprising 50 mM HEPES buffer pH 7.5, 150 mM NaCl, 0.5 mM EDTA, 1 mM DTT, 0.001% Tween-20.
(§2) The assay is performed using a phosphated substrate, e.g., 10 mM 6,8-Difluoro-4-Methylumbelliferyl Phosphate (DIFMUP) that is stored at −20° C. Alternatively or in addition to, the assay is performed using other phosphated substrate (e.g., fluorescein diphosphate). Each PTP enzyme is diluted in the assay buffer
(§3) The assay can be carried out at room temperature in multiplate format, e.g., using 384 well plates. A small molecule PTPN2 inhibitor dissolved in DMSO at one of 10 concentrations from a serial dilution or DMSO alone for control is added to each well. A mixture of the assay buffer comprising PTP enzyme (e.g., 0.025 ng/ul PTPN2) is added to each well and mixed for approximately 2 minutes. The reaction is initiated by adding DiFMUP diluted in the assay buffer to a final concentration of approximately 45 μM DiFMUP in PTPN2 assay. For each PTP enzyme, DiFMUP is added at the Km (Michaelis constant) of the enzyme that had been independently determined. The phosphatase activity of the PTP enzyme is assessed by monitoring appearance of a fluorescent product (6,8-difluoro-7-hydroxyl-4-coumarin (DiFMU) from DiFMUP) continuously for about 15 to 30 minutes, using the INFINITE M1000Pro plate reader (Tecan) with excitation at 360 nm and emission at 450 nm (cutoff filter at 435 nm) for DiFMU. Each assay is performed at least in duplicate. The rate (e.g., the initial rate) of DiFMU formation is plotted against the concentration of the small molecule PTPN2 inhibitor, and the data is fitted (e.g., using a 4-parameter equation) to determine the inflection point of the fit as the IC50 of the small molecule PTPN2 inhibitor for a specific enzyme. Utilizing this assay, the ability of the compounds in Table 2 to inhibit PTPN2 and PTP1B has been assessed. Table 3 summarizes the IC50 values.

A further assay concerns the target T2, PTPN1 (i.e., PTP1B) (Homo sapiens, UniProt P18031).
T2 sequence (P18031 1-435): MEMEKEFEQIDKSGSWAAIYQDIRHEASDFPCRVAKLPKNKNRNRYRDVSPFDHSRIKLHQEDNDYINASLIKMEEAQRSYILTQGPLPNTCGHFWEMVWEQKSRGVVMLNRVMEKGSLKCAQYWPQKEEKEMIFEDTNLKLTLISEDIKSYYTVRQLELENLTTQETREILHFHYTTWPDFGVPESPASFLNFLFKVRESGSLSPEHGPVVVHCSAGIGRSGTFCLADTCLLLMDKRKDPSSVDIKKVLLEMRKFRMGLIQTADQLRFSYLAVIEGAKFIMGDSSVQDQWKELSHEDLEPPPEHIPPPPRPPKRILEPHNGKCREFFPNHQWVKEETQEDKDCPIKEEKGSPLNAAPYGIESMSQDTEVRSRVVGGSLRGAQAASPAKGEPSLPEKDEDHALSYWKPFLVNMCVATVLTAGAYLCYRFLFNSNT
As to the kind of experiment: Phosphatase activity assay (DiFMUP substrate), PTP1B. The conditions noted are these: compounds binned ≤1 uM or >1 uM. It is filed as biochemical. The protocol: as §1, §2, §3

One may read the IC50 as the midpoint of a concentration-inhibition curve. `Cc1ncc(-c2ccc(O)c(N3CC(=O)NS3(=O)=O)c2F)[nH]1` [Compound 263, 5-(2-fluoro-6-hydroxy-3-(2-methyl-1H-imidazol-5-yl)phenyl)-1,2,5-thiadiazolidin-3-one 1,1-dioxide]: the 50% inhibitory concentration (IC50) is no more than 1000 nM at PTPN2 (i.e., TC-PTP) and no more than 1000 nM at PTPN1 (i.e., PTP1B).
`NCC1CCCN1c1cc(-c2ccc(O)c(N3CC(=O)NS3(=O)=O)c2F)[nH]n1` (stereo not drawn) [Compound 308, 5-(3-(3-(2-(aminomethyl)pyrrolidin-1-yl)-1H-pyrazol-5-yl)-2-fluoro-6-hydroxyphenyl)-1,2,5-thiadiazolidin-3-one 1,1-dioxide]: the IC50 on PTPN2 (i.e., TC-PTP) is no more than 1000 nM; on PTPN1 (i.e., PTP1B), no more than 1000 nM.
As to `O=C1CN(c2c(O)ccc(-c3cc(N4CCOCC4)n[nH]3)c2F)S(=O)(=O)N1` [Compound 286, 5-(2-fluoro-6-hydroxy-3-(3-morpholino-1H-pyrazol-5-yl)phenyl)-1,2,5-thiadiazolidin-3-one 1,1-dioxide], the half-inhibitory concentration (IC50) is no more than 1000 nM at PTPN2 (i.e., TC-PTP) and no more than 1000 nM on PTPN1 (i.e., PTP1B).
Take `N#CNC(=N)N1CC=C(c2ccc(O)c(N3CC(=O)NS3(=O)=O)c2F)C1` [Compound 476, N-cyano-3-(3-(1,1-dioxido-4-oxo-1,2,5-thiadiazolidin-2-yl)-2-fluoro-4-hydroxyphenyl)-2,5-dihydro-1H-pyrrole-1-carboximidamide]: the concentration for half-maximal inhibition (IC50) was no more than 1000 nM on PTPN2 (i.e., TC-PTP) and no more than 1000 nM on PTPN1 (i.e., PTP1B).
With `O=C1CN(c2c(O)ccc(-c3cnn(C4CCC(F)(F)CC4)c3)c2F)S(=O)(=O)N1` [Compound 446, 5-(3-(1-(4,4-difluorocyclohexyl)-1H-pyrazol-4-yl)-2-fluoro-6-hydroxyphenyl)-1,2,5-thiadiazolidin-3-one 1,1-dioxide], the IC50 on PTPN2 (i.e., TC-PTP) was no more than 1000 nM; at PTPN1 (i.e., PTP1B) it was no more than 1000 nM.
As to `CN(C)C1CC=C(c2ccc(O)c(N3CC(=O)NS3(=O)=O)c2F)C1` (stereo not drawn) [Compound 301, 5-(3-(4-(dimethylamino)cyclopent-1-en-1-yl)-2-fluoro-6-hydroxyphenyl)-1,2,5-thiadiazolidin-3-one 1,1-dioxide], the IC50 at PTPN2 (i.e., TC-PTP) was no more than 1000 nM; at PTPN1 (i.e., PTP1B), no more than 1000 nM.
Consider `O=C1CN(c2c(O)ccc(-c3cn(-c4cccc(F)c4)cn3)c2F)S(=O)(=O)N1` [Compound 181, 5-(2-fluoro-3-(1-(3-fluorophenyl)-1H-imidazol-4-yl)-6-hydroxyphenyl)-1,2,5-thiadiazolidin-3-one 1,1-dioxide], for which the IC50 at PTPN2 (i.e., TC-PTP) was no more than 1000 nM; on PTPN1 (i.e., PTP1B), no more than 1000 nM.
On to `O=C1CN(c2c(O)ccc(-c3ccc(NS(=O)(=O)C4CC4)nc3)c2F)S(=O)(=O)N1` [Compound 320, N-(5-(3-(1,1-dioxido-4-oxo-1,2,5-thiadiazolidin-2-yl)-2-fluoro-4-hydroxyphenyl)pyridin-2-yl)cyclopropanesulfonamide], for which the half-inhibitory concentration (IC50) on PTPN2 (i.e., TC-PTP) was no more than 1000 nM; at PTPN1 (i.e., PTP1B), no more than 1000 nM.
Take `O=C1CN(c2c(O)ccc(-c3ccc(-c4ccccc4)nc3)c2F)S(=O)(=O)N1` [Compound 120, 5-(2-fluoro-6-hydroxy-3-(6-phenylpyridin-3-yl)phenyl)-1,2,5-thiadiazolidin-3-one 1,1-dioxide]: the IC50 was no more than 1000 nM at PTPN2 (i.e., TC-PTP) and no more than 1000 nM at PTPN1 (i.e., PTP1B).
Turning to `O=C1CN(c2c(O)ccc(-c3cnn(Cc4ccc(F)c(F)c4)c3)c2F)S(=O)(=O)N1` [Compound 211, 5-(3-(1-(3,4-difluorobenzyl)-1H-pyrazol-4-yl)-2-fluoro-6-hydroxyphenyl)-1,2,5-thiadiazolidin-3-one 1,1-dioxide], the concentration for half-maximal inhibition (IC50) on PTPN2 (i.e., TC-PTP) was no more than 1000 nM; on PTPN1 (i.e., PTP1B), no more than 1000 nM.
As for `Cn1ncc(-c2ccc(O)c(N3CC(=O)NS3(=O)=O)c2F)n1` [Compound 178, 5-(2-fluoro-6-hydroxy-3-(2-methyl-2H-1,2,3-triazol-4-yl)phenyl)-1,2,5-thiadiazolidin-3-one 1,1-dioxide], the IC50 on PTPN2 (i.e., TC-PTP) was no more than 1000 nM; on PTPN1 (i.e., PTP1B) it was no more than 1000 nM.
As to `O=C1CN(c2c(O)ccc(C3=CCC(NS(=O)(=O)C4CC4)CC3)c2F)S(=O)(=O)N1` (stereo not drawn) [Compound 317, N-(3′-(1,1-dioxido-4-oxo-1,2,5-thiadiazolidin-2-yl)-2′-fluoro-4′-hydroxy-2,3,4,5-tetrahydro-[1,1′-biphenyl]-4-yl)cyclopropanesulfonamide], the concentration for half-maximal inhibition (IC50) at PTPN2 (i.e., TC-PTP) is no more than 1000 nM; on PTPN1 (i.e., PTP1B), no more than 1000 nM.
As to `CC(C)S(=O)(=O)Nc1ccc(-c2ccc(O)c(N3CC(=O)NS3(=O)=O)c2F)cc1` [Compound 374, N-(3′-(1,1-dioxido-4-oxo-1,2,5-thiadiazolidin-2-yl)-2′-fluoro-4′-hydroxy-[1,1′-biphenyl]-4-yl)propane-2-sulfonamide], the IC50 at PTPN2 (i.e., TC-PTP) was no more than 1000 nM; at PTPN1 (i.e., PTP1B), no more than 1000 nM.
In the case of `O=C1CN(c2c(O)ccc(-c3cn(C4CCCCC4)nc3F)c2F)S(=O)(=O)N1` [Compound 469, 5-(3-(1-cyclohexyl-3-fluoro-1H-pyrazol-4-yl)-2-fluoro-6-hydroxyphenyl)-1,2,5-thiadiazolidin-3-one 1,1-dioxide], the half-maximal inhibitory concentration (IC50) was no more than 1000 nM on PTPN2 (i.e., TC-PTP) and no more than 1000 nM on PTPN1 (i.e., PTP1B).
Turning to `CC(C)Cn1cc(-c2ccc(O)c(N3CC(=O)NS3(=O)=O)c2F)cn1` [Compound 149, 5-(2-fluoro-6-hydroxy-3-(1-isobutyl-1H-pyrazol-4-yl)phenyl)-1,2,5-thiadiazolidin-3-one 1,1-dioxide], the half-maximal inhibitory concentration (IC50) at PTPN2 (i.e., TC-PTP) was no more than 1000 nM; on PTPN1 (i.e., PTP1B), no more than 1000 nM.
As for `O=C1CN(c2c(O)ccc(-c3cc(N4CCCC4)n[nH]3)c2F)S(=O)(=O)N1` [Compound 343, 5-(2-fluoro-6-hydroxy-3-(3-(pyrrolidin-1-yl)-1H-pyrazol-5-yl)phenyl)-1,2,5-thiadiazolidin-3-one 1,1-dioxide], the IC50 on PTPN2 (i.e., TC-PTP) was no more than 1000 nM; at PTPN1 (i.e., PTP1B), no more than 1000 nM.
Regarding `CCn1nc(-c2ccc(O)c(N3CC(=O)NS3(=O)=O)c2F)cc1C1CC1(F)F` (stereo not drawn) [Compound 494, 5-(3-(5-(2,2-difluorocyclopropyl)-1-ethyl-1H-pyrazol-3-yl)-2-fluoro-6-hydroxyphenyl)-1,2,5-thiadiazolidin-3-one 1,1-dioxide], the IC50 is no more than 1000 nM at PTPN2 (i.e., TC-PTP) and no more than 1000 nM on PTPN1 (i.e., PTP1B).
Regarding `O=C1CN(c2c(O)ccc(-c3cnn(CCc4ccccc4)c3)c2F)S(=O)(=O)N1` [Compound 207, 5-(2-fluoro-6-hydroxy-3-(1-phenethyl-1H-pyrazol-4-yl)phenyl)-1,2,5-thiadiazolidin-3-one 1,1-dioxide], the half-maximal inhibitory concentration (IC50) at PTPN2 (i.e., TC-PTP) is no more than 1000 nM; at PTPN1 (i.e., PTP1B), no more than 1000 nM.
Turning to `Cc1ncc(-c2ccc(O)c(N3CC(=O)NS3(=O)=O)c2F)o1` [Compound 101, 5-(2-fluoro-6-hydroxy-3-(2-methyloxazol-5-yl)phenyl)-1,2,5-thiadiazolidin-3-one 1,1-dioxide], the half-inhibitory concentration (IC50) on PTPN2 (i.e., TC-PTP) was no more than 1000 nM; at PTPN1 (i.e., PTP1B), no more than 1000 nM.
For the compound `CC(C1CCCCC1)n1cnc(-c2ccc(O)c(N3CC(=O)NS3(=O)=O)c2F)c1` (stereo not drawn) [Compound 413, 5-(3-(1-(1-cyclohexylethyl)-1H-imidazol-4-yl)-2-fluoro-6-hydroxyphenyl)-1,2,5-thiadiazolidin-3-one 1,1-dioxide], the half-maximal inhibitory concentration (IC50) on PTPN2 (i.e., TC-PTP) was greater than 1000 nM.
